# Measured values reported in ChEMBL document CHEMBL1649383, “Mode of action of epoxyphomalins A and B and characterization of related metabolites from the marine-derived fungus Paraconiothyrium sp” (J Nat Prod, 2010).
# Assays:
# [1] = species: Homo sapiens; test: Inhibition of chymotrypsin like activity of human erythrocyte-derived 20S proteasome after 60 mins by fluorescence assay
# [2] = species: Homo sapiens; test: Inhibition of trypsin like activity of human erythrocyte-derived 20S proteasome after 60 mins by fluorescence assay
# [3] = species: Homo sapiens; test: Inhibition of caspase like activity of human erythrocyte-derived 20S proteasome after 60 mins by fluorescence assay
Activity [1],Activity [2],Activity [3],SMILES
Dose-dependent effect,Dose-dependent effect,Dose-dependent effect,CC1=CC[C@H]2[C@](C)(CO)CCC[C@]2(C)[C@H]1C[C@@]12O[C@@H]1C(=O)C(CO)=C[C@H]2O
Dose-dependent effect,Dose-dependent effect,Dose-dependent effect,CC1=C[C@@H](O)[C@]2(C[C@H]3C(C)=CC[C@H]4[C@](C)(CO)CCC[C@]34C)O[C@@H]2C1=O
